Assay results reported in patent US11731943B2, “Therapeutic compounds, compositions and methods of use thereof” (priority 2016, dated 2023).
Where two headings read alike, the source gives them in different places.

Tests used:
[1] = target: isolated recombinant JAK1 kinase domain (Homo sapiens (Human), UniProt P23458); test: JAK1 enzyme assay (Caliper LabChip, Ki); assay type: biochemical
Procedure: (§1) JAK Enzyme Assays were carried out as follows:
(§2) The activity of the isolated recombinant JAK1 and JAK2 kinase domain was measured by monitoring phosphorylation of a peptide derived from JAK3 (Val-Ala-Leu-Val-Asp-Gly-Tyr-Phe-Arg-Leu-Thr-Thr, fluorescently labeled on the N-terminus with 5-carboxyfluorescein) using the Caliper LabChip® technology (Caliper Life Sciences, Hopkinton, Mass.). […] Reactions were incubated at 22° C. in 384-well polypropylene microtiter plates for 30 minutes and then stopped by addition of 25 μL of an EDTA containing solution (100 mM HEPES buffer (pH 7.2), 0.015% Brij-35, 150 mM EDTA), resulting in a final EDTA concentration of 50 mM. After termination of the kinase reaction, the proportion of phosphorylated product was determined as a fraction of total peptide substrate using the Caliper LabChip® 3000 according to the manufacturer's specifications. Ki values were then determined using the Morrison tight binding model (Morrison, J. F., Biochim. Biophys. Acta. 185:269-296 (1969); William, J. W. and Morrison, J. F., Meth. Enzymol., 63:437-467 (1979)) modified for ATP-competitive inhibition [Ki=Ki,app/(1+[ATP]/Km,app)].

[2] = target: isolated recombinant JAK2 kinase domain (Homo sapiens (Human), UniProt O60674); test: JAK2 enzyme assay (Caliper LabChip, Ki); assay type: biochemical
Procedure: as §1
as §2, with “([…]” for “(Val-Ala-Leu-Val-Asp-Gly-Tyr-Phe-Arg-Leu-Thr-Thr,”, “specifications.” for “specifications. Ki values were then determined using the Morrison tight binding model (Morrison, J. F., Biochim. Biophys. Acta. 185:269-296 (1969); William, J. W. and Morrison, J. F., Meth. Enzymol., 63:437-467 (1979)) modified for ATP-competitive inhibition [Ki=Ki,app/(1+[ATP]/Km,app)].”

Sequence of isolated recombinant JAK2 kinase domain (O60674 849-1124): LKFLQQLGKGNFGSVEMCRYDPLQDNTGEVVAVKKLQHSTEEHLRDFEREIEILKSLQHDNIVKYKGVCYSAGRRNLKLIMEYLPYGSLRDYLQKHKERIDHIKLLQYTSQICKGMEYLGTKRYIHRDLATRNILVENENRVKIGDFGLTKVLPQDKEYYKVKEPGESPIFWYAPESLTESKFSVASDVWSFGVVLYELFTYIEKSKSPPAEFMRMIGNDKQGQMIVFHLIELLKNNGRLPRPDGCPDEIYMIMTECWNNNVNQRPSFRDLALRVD
Sequence of isolated recombinant JAK1 kinase domain (P23458 875-1153): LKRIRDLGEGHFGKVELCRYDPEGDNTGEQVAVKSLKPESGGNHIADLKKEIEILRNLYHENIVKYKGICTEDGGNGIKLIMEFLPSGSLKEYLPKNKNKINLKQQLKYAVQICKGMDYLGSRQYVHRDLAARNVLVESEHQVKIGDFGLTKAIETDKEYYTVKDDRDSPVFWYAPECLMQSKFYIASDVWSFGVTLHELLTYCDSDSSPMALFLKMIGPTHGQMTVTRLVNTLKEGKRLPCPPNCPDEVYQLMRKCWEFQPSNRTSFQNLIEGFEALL

| Structure (SMILES) | Ki ([1]; read-out: JAK1 Ki) [nM] | Ki [2] [nM] | Ki [1] [nM] |
| --- | --- | --- | --- |
| N#CCC1(n2cc(C(N)=O)c(NC(=O)C3CC3)n2)CCN(Cc2cccc(I)c2)CC1 [Example 54] | 10.7 | 102 | – |
| N#CCC1(n2cc(C(N)=O)c(NC(=O)C3CC3)n2)CCN(Cc2cccc(Cl)c2)CC1 [Example 59] | 4.7 | 35.9 | – |
| N#CCC1(n2cc(C(N)=O)c(NC(=O)C3CC3)n2)CCN(Cc2ccccc2C(F)(F)F)CC1 [Example 61] | 8.3 | 118 | – |
| N#CCC1(n2cc(C(N)=O)c(NC(=O)C3CC3)n2)CCN(Cc2cccc(C(F)(F)F)c2)CC1 [Example 62] | 27.6 | 285 | – |
| N#CCC1(n2cc(C(N)=O)c(NC(=O)C3CC3)n2)CCN(Cc2ccc(C(F)(F)F)cc2)CC1 [Example 63] | 14.4 | 134 | – |
| N#CCC1(n2cc(C(N)=O)c(NC(=O)C3CC3)n2)CCN(Cc2cccc(C#N)c2)CC1 [Example 65] | 13.7 | 123 | – |
| N#CCC1(n2cc(C(N)=O)c(NC(=O)C3CC3)n2)CCN(Cc2cccc(SC(F)(F)F)c2)CC1 [Example 67] | 100 | > 319 | – |
| N#CCC1(n2cc(C(N)=O)c(NC(=O)C3CC3)n2)CCN(Cc2ccc(SC(F)(F)F)cc2)CC1 [Example 68] | 39 | > 319 | – |
| CS(=O)(=O)c1ccccc1CN1CCC(CC#N)(n2cc(C(N)=O)c(NC(=O)C3CC3)n2)CC1 [Example 69] | 15.2 | 124 | – |
| CS(=O)(=O)c1cccc(CN2CCC(CC#N)(n3cc(C(N)=O)c(NC(=O)C4CC4)n3)CC2)c1 [Example 70] | 31 | > 319 | – |
| CS(=O)(=O)c1ccc(CN2CCC(CC#N)(n3cc(C(N)=O)c(NC(=O)C4CC4)n3)CC2)cc1 [Example 71] | 34.1 | > 319 | – |
| N#CCC1(n2cc(C(N)=O)c(NC(=O)C3CC3)n2)CCN(Cc2ccc3cc[nH]c3c2)CC1 [Example 72] | 8.3 | 31.3 | – |
| N#CCC1(n2cc(C(N)=O)c(NC(=O)C3CC3)n2)CCN(Cc2ccc3nc[nH]c3c2)CC1 [Example 73] | 57.3 | 272 | – |
| N#CCC1(n2cc(C(N)=O)c(NC(=O)C3CC3)n2)CCN(Cc2cccc(NS(=O)(=O)c3ccccc3)c2)CC1 [Example 74] | 6.1 | 58.7 | – |
| N#CCC1(n2cc(C(N)=O)c(NC(=O)C3CC3)n2)CCN(Cc2ccc(-c3ccn(C(F)(F)F)n3)cc2)CC1 [Example 83] | 16.1 | 313 | – |
| N#CCC1(n2cc(C(N)=O)c(NC(=O)C3CC3)n2)CCN(Cc2ccc(N3CCCC3)cc2)CC1 [Example 84] | 85 | > 319 | – |
| N#CCC1(n2cc(C(N)=O)c(NC(=O)C3CC3)n2)CCN(Cc2ccc(-n3ccnc3)cc2)CC1 [Example 85] | 45.1 | 170 | – |
| N#CCC1(n2cc(C(N)=O)c(NC(=O)C3CC3)n2)CCN(Cc2ccc(-n3cncn3)cc2)CC1 [Example 86] | 99.7 | > 319 | – |
| N#CCC1(n2cc(C(N)=O)c(NC(=O)C3CC3)n2)CCN(Cc2ccc(-n3cnc4ccccc43)cc2)CC1 [Example 88] | 26.3 | 150 | – |
| N#CCC1(n2cc(C(N)=O)c(NC(=O)C3CC3)n2)CCN(Cc2cnn(-c3ccccc3)c2)CC1 [Example 90] | 7.2 | 133 | – |
| N#CCC1(n2cc(C(N)=O)c(NC(=O)C3CC3)n2)CCN(Cc2ccc3c(c2)CSC3)CC1 [Example 91] | 8.3 | 173 | – |
| N#CCC1(n2cc(C(N)=O)c(NC(=O)C3CC3)n2)CCN(Cc2cccc(OC(F)F)c2)CC1 [Example 92] | 10.9 | 88.1 | – |
| N#CCC1(n2cc(C(N)=O)c(NC(=O)C3CC3)n2)CCN(Cc2cccc(NS(=O)(=O)C(F)(F)F)c2)CC1 [Example 93] | 72.1 | > 319 | – |
| N#CCC1(n2cc(C(N)=O)c(NC(=O)C3CC3)n2)CCN(CCC(F)(F)F)CC1 [Example 96] | 24.1 | 113 | – |
| N#CCC1(n2cc(C(N)=O)c(NC(=O)C3CC3)n2)CCN(Cc2cccc(CN)c2)CC1 [Example 97] | 41 | 163 | – |
| N#CCC1(n2cc(C(N)=O)c(NC(=O)C3CC3)n2)CCN(C2CCN(C(=O)c3ccnc(C(F)(F)F)c3F)CC2)CC1 [Example 98] | 74.6 | 152 | – |
| CN[C@H]1CC[C@](CC#N)(n2cc(C(N)=O)c(NC(=O)C3CC3)n2)CC1 [Example 99] | – | > 319 | 92.2 |

| Structure (SMILES) | Ki ([1]; read-out: JAK1 Ki) [nM] | Ki [2] [nM] | Ki [1] [nM] |
| --- | --- | --- | --- |
| CN[C@H]1CC[C@@](CC#N)(n2cc(C(N)=O)c(NC(=O)C3CC3)n2)CC1 [Example 100] | – | > 319 | > 562 |
| COC1CN([C@H]2CC[C@](CC#N)(n3cc(C(N)=O)c(NC(=O)C4CC4)n3)CC2)C1 [Example 101] | – | > 319 | > 562 |
| N#CC[C@]1(n2cc(C(N)=O)c(NC(=O)C3CC3)n2)CC[C@H](NC2CCOCC2)CC1 [Example 103] | – | > 319 | 38 |
| N#CC[C@]1(n2cc(C(N)=O)c(NC(=O)C3CC3)n2)CC[C@@H](NC2CCOCC2)CC1 [Example 104] | – | > 319 | > 562 |
| CC1(C)CN([C@H]2CC[C@](CC#N)(n3cc(C(N)=O)c(NC(=O)C4CC4)n3)CC2)C1 [Example 105] | – | > 319 | > 562 |
| CC1(C)CN([C@H]2CC[C@@](CC#N)(n3cc(C(N)=O)c(NC(=O)C4CC4)n3)CC2)C1 [Example 106] | – | 333 | 23.3 |
| N#CC[C@]1(n2cc(C(N)=O)c(NC(=O)C3CC3)n2)CC[C@@H](N2CC3(CCC3)C2)CC1 [Example 108] | – | 205 | 466 |
| N#CC[C@]1(n2cc(C(N)=O)c(NC(=O)C3CC3)n2)CC[C@H](NCc2ccccc2)CC1 [Example 109] | – | > 319 | > 562 |
| N#CC[C@]1(n2cc(C(N)=O)c(NC(=O)C3CC3)n2)CC[C@@H](NCc2ccccc2)CC1 [Example 110] | – | 254 | 5.3 |
| N#CC[C@]1(n2cc(C(N)=O)c(NC(=O)C3CC3)n2)CC[C@H](NCc2ccccc2F)CC1 [Example 111] | – | 87.3 | 9.5 |
| N#CC[C@]1(n2cc(C(N)=O)c(NC(=O)C3CC3)n2)CC[C@@H](NCc2ccccc2F)CC1 [Example 112] | – | > 319 | > 562 |
| N#CC[C@]1(n2cc(C(N)=O)c(NC(=O)C3CC3)n2)CC[C@H](NCc2cccc(F)c2)CC1 [Example 113] | – | 187 | 14.4 |
| N#CC[C@]1(n2cc(C(N)=O)c(NC(=O)C3CC3)n2)CC[C@@H](NCc2cccc(F)c2)CC1 [Example 114] | – | > 319 | > 562 |
| N#CC[C@]1(n2cc(C(N)=O)c(NC(=O)C3CC3)n2)CC[C@H](NCc2ccc(F)cc2)CC1 [Example 115] | – | 300 | 21.9 |
| N#CC[C@]1(n2cc(C(N)=O)c(NC(=O)C3CC3)n2)CC[C@@H](NCc2ccc(F)cc2)CC1 [Example 116] | – | > 319 | 164 |
| N#CC[C@]1(n2cc(C(N)=O)c(NC(=O)C3CC3)n2)CC[C@@H](NCc2ccccc2Cl)CC1 [Example 118] | – | > 319 | > 562 |
| N#CC[C@]1(n2cc(C(N)=O)c(NC(=O)C3CC3)n2)CC[C@H](NCc2ccc(Cl)cc2)CC1 [Example 119] | – | > 319 | 437 |
| N#CC[C@]1(n2cc(C(N)=O)c(NC(=O)C3CC3)n2)CC[C@@H](NCc2ccc(Cl)cc2)CC1 [Example 120] | – | 115 | 12 |
| N#CC[C@]1(n2cc(C(N)=O)c(NC(=O)C3CC3)n2)CC[C@H](NCc2ccc(C#N)cc2)CC1 [Example 121] | – | 282 | 14.6 |
| N#CC[C@]1(n2cc(C(N)=O)c(NC(=O)C3CC3)n2)CC[C@@H](NCc2ccc(C#N)cc2)CC1 [Example 122] | – | > 319 | 562 |
| N#CC[C@]1(n2cc(C(N)=O)c(NC(=O)C3CC3)n2)CC[C@H](NCc2cccc(C#N)c2)CC1 [Example 123] | – | > 319 | > 562 |
| N#CC[C@]1(n2cc(C(N)=O)c(NC(=O)C3CC3)n2)CC[C@@H](NCc2cccc(C#N)c2)CC1 [Example 124] | – | 273 | 32.7 |
| N#CC[C@]1(n2cc(C(N)=O)c(NC(=O)C3CC3)n2)CC[C@H](NCCC(F)(F)F)CC1 [Example 125] | – | 78.3 | 7.3 |
| N#CC[C@]1(n2cc(C(N)=O)c(NC(=O)C3CC3)n2)CC[C@@H](NCCC(F)(F)F)CC1 [Example 126] | – | > 319 | 188 |
| N#CC[C@]1(n2cc(C(N)=O)c(NC(=O)C3CC3)n2)CC[C@H](NCc2ccc(-c3ccccc3)cc2)CC1 [Example 127] | – | > 319 | > 562 |
| CN(CC(F)(F)F)[C@H]1CC[C@@](CC#N)(n2cc(C(N)=O)c(NC(=O)C3CC3)n2)CC1 [Example 130] | – | > 319 | > 562 |
